This note sets out measurements from US10745388B2, “Indazole compounds and uses thereof” (Incyte Corporation, priority 2018, dated 2020).

pKi: −log10 of the molar value.

This test concerns the target HPK1 (Homo sapiens (Human), UniProt Q92918). Description: HPK1 Kinase Binding Assay. Conditions: LanthaScreen tracer 222 binding, active HPK1, one hour incubation at 25° C. As to the method: A stock solution of 1 mM test compound was prepared in DMSO. The compound plate was prepared by 3-fold and 11-point serial dilutions. 0.1 μL of the compound in DMSO was transferred from the compound plate to the white 384 well polystyrene plates. The assay buffer contained 50 mM HEPES, pH 7.5, 0.01% Tween-20, 5 mM MgCl2, 0.01% BSA, and 5 mM DTT. 5 μL of 4 nM active HPK1 (SignalChem M23-11G) prepared in the buffer was added to the plate. The enzyme concentration given was based on the given stock concentration reported by the vender. 5 μL of 18 nM tracer 222 (ThermoFisher PV6121) and 4 nM LanthaScreen Eu-Anti GST antibody (ThermoFisher PV5595) were added. After one hour incubation at 25° C., the plates were read on a PHERAstar FS plate reader (BMG Labtech). Ki values were determined.

HPK1, sequence (Q92918 1-346 limits assumed): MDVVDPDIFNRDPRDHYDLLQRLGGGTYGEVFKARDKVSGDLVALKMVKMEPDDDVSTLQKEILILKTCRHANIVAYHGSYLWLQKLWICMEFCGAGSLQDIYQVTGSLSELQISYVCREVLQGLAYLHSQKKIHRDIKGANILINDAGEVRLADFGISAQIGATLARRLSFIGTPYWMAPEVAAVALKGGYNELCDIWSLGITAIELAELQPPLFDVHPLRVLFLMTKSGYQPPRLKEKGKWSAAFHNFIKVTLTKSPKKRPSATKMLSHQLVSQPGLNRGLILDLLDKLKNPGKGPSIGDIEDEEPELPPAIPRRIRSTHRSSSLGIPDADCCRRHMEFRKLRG

The pKi is the negative decadic logarithm of the Ki, by convention in mol/L. A low value points to a high Ki. The molecule `COc1cccc(F)c1-c1nccc(C(=O)Nc2ccc3nn(C)cc3c2N(C)CCO)n1` [1, Peak 1] showed a pKi not below 7.00.
Regarding `COc1cccc(F)c1-c1nccc(C(=O)Nc2ccc3c(cnn3C)c2N(C)C2CCN(C)CC2)n1` [Example 2, 2-(2-Fluoro-6-methoxyphenyl)-N-(1-methyl-4-(methyl(1-methylpiperidin-4-yl)amino)-1H-indazol-5-yl)pyrimidine-4-carboxamide], the pKi is not below 7.00.
As to `COc1cccc(F)c1-c1nccc(C(=O)Nc2ccc3c(cnn3C)c2N(C)C2CC2)n1` [Example 3, N-(4-(Cyclopropyl(methyl)amino)-1-methyl-1H-indazol-5-yl)-2-(2-fluoro-6-methoxyphenyl)pyrimidine-4-carboxamide], the pKi was not below 7.00.
Turning to `COc1cccc(F)c1-c1nccc(C(=O)Nc2ccc3c(cnn3C)c2N(C)C)n1` [Example 4, N-(4-(Dimethylamino)-1-methyl-1H-indazol-5-yl)-2-(2-fluoro-6-methoxyphenyl)pyrimidine-4-carboxamide], the pKi was not below 7.00.
The molecule `COc1cccc(F)c1-c1nccc(C(=O)Nc2ccc3c(cnn3C)c2N(C)Cc2ccccc2)n1` [Example 5, N-(4-(Benzyl(methyl)amino)-1-methyl-1H-indazol-5-yl)-2-(2-fluoro-6-methoxyphenyl)pyrimidine-4-carboxamide] had a pKi not below 7.00.
The molecule `COc1cccc(F)c1-c1nccc(C(=O)Nc2ccc3c(cnn3C)c2N(C)Cc2cccnc2)n1` [Example 6, 2-(2-Fluoro-6-methoxyphenyl)-N-(1-methyl-4-(methyl(pyridin-3-ylmethyl)amino)-1H-indazol-5-yl)pyrimidine-4-carboxamide] gave a pKi not below 7.00.
`COc1cccc(F)c1-c1nccc(C(=O)Nc2ccc3c(cnn3C)c2N(C)C2CCOCC2)n1` [Example 7]: the pKi is not below 7.00.
In the case of `COc1cccc(F)c1-c1nccc(C(=O)Nc2ccc3c(cnn3C)c2N(C)CC(C)(C)O)n1` [Example 8, 2-(2-Fluoro-6-methoxyphenyl)-N-(4-((2-hydroxy-2-methylpropyl)(methyl)amino)-1-methyl-1H-indazol-5-yl)pyrimidine-4-carboxamide] it was not below 7.00; in that of `COc1cccc(F)c1-c1nccc(C(=O)Nc2ccc3c(cnn3C)c2N(C)CC2CCCO2)n1` (stereo not drawn) [Example 9, 2-(2-Fluoro-6-methoxyphenyl)-N-(1-methyl-4-(methyl((tetrahydrofuran-2-yl)methyl)amino)-1H-indazol-5-yl)pyrimidine-4-carboxamide], not below 7.00.
In the case of `COc1cccc(F)c1-c1nccc(C(=O)Nc2ccc3c(cnn3C)c2N(C)CC2(O)COC2)n1` [Example 10, 2-(2-Fluoro-6-methoxyphenyl)-N-(4-(((3-hydroxyoxetan-3-yl)methyl)(methyl)amino)-1-methyl-1H-indazol-5-yl)pyrimidine-4-carboxamide] it was 5.30 to 6.30; in that of `COc1cccc(F)c1-c1nccc(C(=O)Nc2ccc3c(cnn3C)c2N(C)[C@H]2CCNC2)n1` [Example 11, (S)-2-(2-Fluoro-6-methoxyphenyl)-N-(1-methyl-4-(methyl(pyrrolidin-3-yl)amino)-1H-indazol-5-yl)pyrimidine-4-carboxamide], not below 7.00; in that of `COc1cccc(F)c1-c1nccc(C(=O)Nc2ccc3c(cnn3C)c2N(C)[C@H]2CCN(C(C)=O)C2)n1` [Example 12, (S)—N-(4-((1-acetylpyrrolidin-3-yl)(methyl)amino)-1-methyl-1H-indazol-5-yl)-2-(2-fluoro-6-methoxyphenyl)pyrimidine-4-carboxamide], not below 7.00.
In the case of `COc1cccc(F)c1-c1nccc(C(=O)Nc2ccc3c(cnn3C)c2N(C)[C@H]2CCN(S(C)(=O)=O)C2)n1` [Example 13, (S)-2-(2-Fluoro-6-methoxyphenyl)-N-(1-methyl-4-(methyl(1-(methylsulfonyl)pyrrolidin-3-yl)amino)-1H-indazol-5-yl)pyrimidine-4-carboxamide] it was not below 7.00; in that of `COc1cccc(F)c1-c1nccc(C(=O)Nc2ccc3c(cnn3C)c2N(C)[C@H]2CCN(C(=O)N(C)C)C2)n1` [Example 14, (S)—N-(4-((1-(Dimethylcarbamoyl)pyrrolidin-3-yl)(methyl)amino)-1-methyl-1H-indazol-5-yl)-2-(2-fluoro-6-methoxyphenyl)pyrimidine-4-carboxamide], not below 7.00; in that of `CNCc1ccccc1-c1c(NC(=O)c2ccnc(-c3c(F)cccc3OC)n2)ccc2c1cnn2C` [Example 15, 2-(2-Fluoro-6-methoxyphenyl)-N-(1-methyl-4-(2-((methylamino)methyl)phenyl)-1H-indazol-5-yl)pyrimidine-4-carboxamide], not below 7.00.
